Results on 8 compounds are retold here after publication PMC12114598, “Repositioning FDA-Approved Sulfonamide-Based Drugs as Potential Carbonic Anhydrase Inhibitors in Trypanosoma cruzi: Virtual Screening and In Vitro Studies” (Pharmaceuticals, 2025).

One data set is described as follows: in vitro. It counts as cell-based. The settings on record: mouse. On the procedure:
Cytotoxicity assays were performed using the methodology proposed by Domínguez-Diaz et al. on a mouse macrophage cell line (J774.2). Cells were cultured in LIT medium supplemented with 10% SFB, penicillin (100 U μg/mL), and streptomycin (100 U μg/mL) at 37 °C in a 5% CO2 atmosphere. The culture medium was replaced at 2–3 day intervals. To evaluate the cytotoxicity of the compounds, 50,000 cells/well were plated in a 96-well plate and allowed to adhere for 24 h at 37 °C. Subsequently, the compounds were added at concentrations of 0.8 to 100 μg/mL to obtain a final volume of 200 μL and incubated for […] with 5% CO2. DMSO 0.1% (maximum concentration used) was included as a negative control and the control drugs as positive ones. The metabolic activity of the cell was determined following the MTT method, the % cell viability was calculated, and the median lethal concentration (LC50) was determined by Probit analysis. Analyses were performed in triplicate, and the Selectivity Index (SI) for the three parasitic stages in the NINOA and A1 strains (CC50/IC50) was calculated.

Data set [1] deals with T. cruzi epimastigotes, NINOA strain. Kind of data set: Trypanocidal activity, epimastigotes in vitro, NINOA strain. It is filed as cell-based. As to conditions: Trypanosoma cruzi; 48 h, resazurin; ± SD; read-out: Epimastigote (In Vitro) NINOA IC50. From the text:
(§1) The selected drugs were purchased from Sigma-Aldrich without further purification. For the in vitro evaluation, the methodology proposed by Domínguez-Diaz et al. 2021 [53] against epimastigotes of T. cruzi strains NINOA (MHOM/MX/1994/NINOA) and A1 for the evaluation of candidate compounds was used. Both strains were maintained in liver-infusion tryptose (LIT) medium supplemented with 10% fetal bovine serum (FBS) and 0.1% penicillin–streptomycin. These strains were maintained by transferring 1 × 10^6 parasites/mL to fresh medium once a week. […] All compounds were initially prepared at a concentration of 10 mg/mL using dimethyl sulfoxide (DMSO) as a diluent. Serial dilutions were then performed with LIT medium until concentrations of 100 to 0.46 μg/mL of each compound were obtained. Amounts of 1 × 10^6 T. cruzi epimastigotes were grown in each well and incubated for 48 h at 28 °C in a final volume of 200 μL. DMSO was included as a negative control, and reference drugs as positive controls. At the end of the incubation period, 20 μL of resazurin solution (2.5 mM) was added to each well and incubated for 3 h. All assays were performed in triplicate, and the IC50 value was determined by probit analysis.

For the next data set, the target named is T1, hCA II (Homo sapiens, UniProt P00918).
T1 construct: made in house
Briefly: CO2 hydrase stopped-flow assay, hCA II. The settings on record: mean of three assays, errors ±5–10%. It counts as biochemical. As for the experimental part:
(§2) An Applied Photophysics stopped-flow instrument was used for assaying the CA-catalysed CO2 hydration activity. […] The uncatalyzed rates were determined in the same manner and subtracted from the total observed rates. Stock solutions of inhibitor (0.1 mM) were prepared in distilled/deionized water, and dilutions up to 0.01 nM were performed thereafter with the assay buffer. Inhibitor and enzyme solutions were preincubated together for 15 min at room temperature before assaying to allow for the formation of the E–I complex. The inhibition constants were obtained by nonlinear least-squares methods using PRISM 3 and the Cheng–Prusoff equation and represent the mean from at least three different determinations. […] All hCA isoforms were recombinant ones obtained in-house, as reported earlier.

In data set [2] the test system is T. cruzi epimastigotes, A1 strain. Briefly: Trypanocidal activity, epimastigotes in vitro, A1 strain. It counts as cell-based. As to conditions: Trypanosoma cruzi; 48 h, resazurin; ± SD; read-out: Epimastigote (In Vitro) A1 IC50.
Text: as §1

The test system of data set [3] is T. cruzi blood trypomastigotes, NINOA strain. Kind of data set: Trypanocidal activity, blood trypomastigotes ex vivo, NINOA strain. It is filed as cell-based. The settings on record: Trypanosoma cruzi; 24 h at 4 °C; ± SD; read-out: Trypomastigote (Ex Vivo) NINOA IC50. As for the experimental part: (§3) Ex vivo evaluation of the trypanocidal activity of the tested compounds was conducted according to previously established protocols. Blood was collected via intracardiac puncture from mice infected with T. cruzi NINOA and A1 strains and diluted in phosphate-buffered saline (PBS, pH 7.2) to achieve a final concentration of 2 × 10^6 blood trypomastigotes/mL. […] The plates were incubated at 4 °C for 24 h. […] Following incubation, live parasites were quantified using a Neubauer chamber, and the half-maximal inhibitory concentration (IC50) was determined by probit analysis. All assays were performed in three independent experiments, each conducted in triplicate.

In data set [4] the test system is T. cruzi amastigotes, A1 strain. Kind of data set: Amastigote assay, A1 strain. It counts as cell-based. The settings on record: Trypanosoma cruzi; in J774.2 macrophages, 48 h, MTT; ± SD; read-out: Amastigote (Ex Vivo) A1 IC50. As for the experimental part:
(§4) Amastigote susceptibility to reference drugs was evaluated in vitro. […] The lysis solution was then replaced with Schneider’s medium followed by incubation at 28 °C for another 4 to 5 days to allow the transformation of viable amastigotes and their subsequent proliferation. Then, MTT colorimetric assays were performed. Finally, the half maximal inhibitory concentration (IC50) was determined by probit analysis. All studies were approved by the Institutional Committee for Handling and Animal Care of the Facultad de Ciencias Quimicas de la Universidad Autonoma “Benito Juarez” de Oaxaca (Register FCQ-CIP-0209243, Approved 23 September 2024) and were carried out according to Mexican guidance (NOM-062-ZOO-1999).

The target of a further data set is T2, hCA I (Homo sapiens, UniProt P00915).
T2 construct: made in house
T2 sequence (P00915 whole entry): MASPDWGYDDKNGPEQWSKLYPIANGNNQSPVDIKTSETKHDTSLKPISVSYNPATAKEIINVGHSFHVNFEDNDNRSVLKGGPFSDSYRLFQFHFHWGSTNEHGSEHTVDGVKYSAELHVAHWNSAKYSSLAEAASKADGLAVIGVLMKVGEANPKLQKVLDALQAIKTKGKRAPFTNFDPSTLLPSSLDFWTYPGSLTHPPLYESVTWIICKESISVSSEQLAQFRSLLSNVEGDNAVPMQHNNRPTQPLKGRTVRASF
Briefly: CO2 hydrase stopped-flow assay, hCA I. It is filed as biochemical. As to conditions: mean of three assays, errors ±5–10%. As for the experimental part: as §2

In data set [5] the test system is T. cruzi amastigotes, NINOA strain. Kind of data set: Amastigote assay, NINOA strain. It counts as cell-based. As to conditions: Trypanosoma cruzi; in J774.2 macrophages, 48 h, MTT; ± SD; read-out: Amastigote (Ex Vivo) NINOA IC50. As for the experimental part: as §4
Data set [6] deals with T. cruzi blood trypomastigotes, A1 strain. Kind of data set: Trypanocidal activity, blood trypomastigotes ex vivo, A1 strain. It is filed as cell-based. The settings on record: Trypanosoma cruzi; 24 h at 4 °C; ± SD; read-out: Trypomastigote (Ex Vivo) A1 IC50. On the procedure:
as §3

For another data set, the target named is α-TcCA (Trypanosoma cruzi, UniProt Q4CVY4). Briefly: CO2 hydrase stopped-flow assay, α-TcCA.
Chain of α-TcCA (Q4CVY4 entry or part of it): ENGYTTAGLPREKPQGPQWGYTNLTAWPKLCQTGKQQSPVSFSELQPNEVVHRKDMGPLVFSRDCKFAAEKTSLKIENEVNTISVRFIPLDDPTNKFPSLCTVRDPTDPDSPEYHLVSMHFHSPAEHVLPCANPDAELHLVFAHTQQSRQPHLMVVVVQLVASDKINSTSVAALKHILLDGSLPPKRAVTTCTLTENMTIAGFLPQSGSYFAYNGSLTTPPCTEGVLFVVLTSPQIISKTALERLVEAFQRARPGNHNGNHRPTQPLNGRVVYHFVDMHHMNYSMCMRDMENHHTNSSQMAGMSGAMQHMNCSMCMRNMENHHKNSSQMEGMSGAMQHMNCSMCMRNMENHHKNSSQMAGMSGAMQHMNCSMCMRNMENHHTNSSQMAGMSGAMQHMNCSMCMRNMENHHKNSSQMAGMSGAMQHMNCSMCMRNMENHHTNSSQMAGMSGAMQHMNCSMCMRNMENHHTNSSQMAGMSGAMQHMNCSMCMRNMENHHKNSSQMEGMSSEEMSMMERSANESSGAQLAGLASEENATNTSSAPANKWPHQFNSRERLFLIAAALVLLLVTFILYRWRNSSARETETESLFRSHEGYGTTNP
The test system of a further data set is T. cruzi epimastigotes. More on the design: method as in PMID 32560043. As to conditions: in vitro epimastigote model; cited from earlier work.

Procedure for α-TcCA: An Applied Photophysics stopped-flow instrument was used for assaying the CA-catalysed CO2 hydration activity [31]. […] The uncatalyzed rates were determined in the same manner and subtracted from the total observed rates. Stock solutions of inhibitor (0.1 mM) were prepared in distilled/deionized water, and dilutions up to 0.01 nM were performed thereafter with the assay buffer. Inhibitor and enzyme solutions were preincubated together for 15 min at room temperature before assaying to allow for the formation of the E–I complex. The inhibition constants were obtained by nonlinear least-squares methods using PRISM 3 and the Cheng–Prusoff equation and represent the mean from at least three different determinations.

In “in vitro”, `CC(=O)Nc1nnc(S(N)(=O)=O)s1` [Aaz, acetazolamide] had a CC50 at 48 h of 12.6 ± 4.7 µM.
As for `CC(=O)c1ccc(S(=O)(=O)NC(=O)NC2CCCCC2)cc1` [Ace, acetohexamide], the IC50 is 6.5 ± 2.1 µM in [1]; 52.9 ± 2.7 µM in data set [2]; 46.5 ± 0.1 µM in data set [3]; more than 200 µM in data set [4]; 46 ± 0.6 µM in data set [5]; more than 200 µM in data set [6]. In addition, the inhibition constant Ki at hCA II worked out at 2.9 µM; at hCA I, 17.3 µM; at α-TcCA it was 5.6 µM. Besides, in “in vitro”, the half-maximal cytotoxic concentration (CC50) at 48 h was more than 200 µM.
In the case of `O=C(Cn1ccnc1[N+](=O)[O-])NCc1ccccc1` [Bzn, Benznidazole], the half-inhibitory concentration (IC50) in data set [1] was determined as 30.3 ± 0.03 µM; in data set [2] it was 19.3 ± 0.08 µM; in [3], 167.1 ± 0.03 µM; in data set [6], 145.3 ± 0.2 µM.
In the case of `Cc1ccc(S(=O)(=O)NC(=O)NN2CC3CCCC3C2)cc1` (stereo not shown) [Glic, gliclazide], the concentration for half-maximal inhibition (IC50) is more than 200 µM in [1]; 10.7 ± 1.5 µM in data set [2]; 89.4 ± 0.1 µM in data set [3]; 12.3 ± 0.01 µM in data set [4]; more than 200 µM in data set [5]; more than 200 µM in [6]. For the same compound, the inhibition constant Ki at hCA I and on α-TcCA was more than 100 µM each time. This compound returned a CC50 at 48 h in “in vitro” of more than 200 µM.
`CCC1=C(C)CN(C(=O)NCCc2ccc(S(=O)(=O)NC(=O)N[C@H]3CC[C@H](C)CC3)cc2)C1=O` [Glim, glimepiride]: the IC50 in data set [1] is 70.2 ± 3.2 µM; in data set [2], 37.6 ± 1.5 µM; in data set [3] it was more than 200 µM; in data set [4], 50.26 ± 0.01 µM; in [5] it was more than 200 µM; in [6], more than 200 µM. Besides, the Ki was 19.9 µM at hCA II, more than 100 µM on hCA I and 35.7 µM on α-TcCA. The compound further yielded a CC50 at 48 h in the data set “in vitro” of 14.2 ± 2.3 µM.
Take `CC1CS(=O)(=O)CCN1/N=C/c1ccc([N+](=O)[O-])o1` (stereo not shown) [Nfx, Nifurtimox]: the concentration for half-maximal inhibition (IC50) is 7.1 ± 0.1 µM in data set [1]; 39.1 ± 0.07 µM in data set [2]; 156 ± 0.1 µM in data set [3]; 54.8 ± 0.01 µM in [4]; 70.5 ± 0.6 µM in data set [5]; 118.2 ± 0.02 µM in data set [6].
In the case of `CCCCNC(=O)NS(=O)(=O)c1ccc(C)cc1` [Tol, tolbutamide], the IC50 in data set [1] was 8.5 ± 1.4 µM; in data set [2], more than 200 µM; in data set [3], 9.8 ± 0.1 µM; in data set [4] it was 44.5 ± 0.01 µM; in data set [5], 148.7 ± 0.01 µM; in data set [6], 97.7 ± 0.1 µM. The Ki on hCA II, on hCA I and at α-TcCA was more than 100 µM throughout. For the same compound, the CC50 at 48 h in the data set “in vitro” is more than 200 µM. Moreover, at α-TcCA (mean of three assays, errors ±5–10%), the “KI TcCA” value is “did not exhibit inhibitory activity”.
For the compound `Cc1cnc(C(=O)NCCc2ccc(S(=O)(=O)NC(=O)NC3CCCCC3)cc2)cn1` [glipizide], in the data set with T. cruzi epimastigotes, the IC50 was 13.4 ± 6 µM.
